# Biological target: T1, CHIP28 (Homo sapiens, UniProt P29972)
# T1 construct: was comprised of AQP1 (the 28-kDa protein itself and the 35-60-kDa glycosylated protein); from tissue; host or cells: human erythrocytes (blood-bank units; small-scale purifications from freshly drawn whole blood)
# T1 sequence (P29972 2-269 limits assumed): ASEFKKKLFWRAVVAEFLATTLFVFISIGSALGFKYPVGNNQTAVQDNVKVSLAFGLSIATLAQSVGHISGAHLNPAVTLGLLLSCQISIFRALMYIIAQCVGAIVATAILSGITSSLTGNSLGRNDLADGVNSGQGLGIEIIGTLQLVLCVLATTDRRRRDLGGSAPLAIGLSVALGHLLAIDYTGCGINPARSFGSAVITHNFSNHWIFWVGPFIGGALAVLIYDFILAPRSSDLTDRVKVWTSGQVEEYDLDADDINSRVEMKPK
# Experiment: Stopped-flow water flux (Pf) in CHIP28 proteoliposomes, effect of mercurial reagents
# Assay type: biochemical
# Procedure: Purified AQP1 was stored overnight at 0° C. or frozen for several days at -80° C. prior to reconstitution. Reconstitution into proteoliposomes was carried out in a final volume of 1 ml containing 60-90 μg of purified AQP 1 protein in chromatography buffer, 9 mg of bath-sonicated E. coli phospholipid, 1.25% (w/v) octyl glucoside, and 50 mM Tris-HCl (pH 7.5). The mixture was briefly blended on a vortex mixer and incubated for 20 minutes on ice. Proteoliposomes (or liposomes prepared without protein) were formed at room temperature by rapidly injecting the mixture into 25 ml of buffer A [50 mM MOPS, pH 7.5, 150 mM N-methyl-D-glucamine (NMDG) chloride also containing 10-15 mM carboxyfluorescein, 1 mM dithiothreitol, and 0.5 mM PMSF]. For the measurement of proton permeability, proteoliposomes and liposomes were loaded with buffer B (5 mM MOPS, pH 7.5, 150 mM KCl, 0.5 mM carboxyfluorescein, 1 mM dithiothreitol, and 0.5 mM PMSF). The suspension was incubated for 20 minutes at room temperature. Proteoliposomes or liposomes were collected by centrifugation for 1 hour at 123000×g in a Beckman Type 42.1 rotor at 4° C. The pellet was resuspended in 8 ml of buffer A or B and then centrifuged for 1 hour at 152000×g in a Beckman Type 50 Ti rotor. Proteoliposomes or liposomes were resuspended in 300 μl of buffer A or B and stored at 4° C. for 16-24 hours. Typically 50% (54±6%, n=5) of the AQP1 protein and 70% of the phospholipid were recovered in proteoliposomes. The lipid to protein ratio was in the range of 120:1 to 219:1. These proteoliposomes have internal volumes of 1 μl/mg of phospholipid (Ambudkar and Maloney, 1986, J. Biol. Chem. 261:10079-10086). Protein and phospholipid were measured as described by Ambudkar & Maloney (J. Biol. Chem., 1986, 261:10079-10086).
# Permeability measurements. Membrane permeability measurements (Pf) were measured by exposing AQP1 proteoliposomes or control liposomes to an osmotic gradient by rapid mixing with an equal volume of another solution containing buffer A plus sufficient sucrose to increase osmolality in the mixed solutions to a value 120% of that in the original solution. This was performed with a stopped-flow fluorometer (SF.17MV, Applied Photophysics, Leatherhead, U.K.) with a measured dead time of 0.7 ms. The excitation wavelength was set at 490±1.5 nm using a 150-W mercury-xenon arc lamp and monochromator (.function.3.4 grating monochromator, both from Applied Photophysics); the emission wavelength was >515 nm using a cut-on filter (Oriel Corp., Stratford, Conn.). Extravesicular carboxyfluorescein fluorescence was completely quenched using anti-fluorescein antibody (Harris et al., 1990, Am. J. Physiol. 259:F366-F371).
# Within the range of osmolalities used in these experiments, the vesicles acted as perfect osmometers, and relative volume (absolute volume divided by initial volume) was linearly related to relative fluorescence (absolute fluorescence divided by initial fluorescence). The data obtained from 8 to 16 determinations was averaged and fit to single-exponential curves using 5 software provided by Applied Photophysics (Zeidel et al., 1992, Biochemistry 31:589-596). The fitting parameters were then used to determine Pf by first applying the linear conversion from relative fluorescence to relative volume and then iteratively solving the water permeability equation using MathCAD software (MathSoft, Cambridge, Mass.):
# dV(t)/dt=(Pf)(SAV)(MVW)[(Cin /V(t))-Cout ] (1)
# where V(t) is relative intravesicular volume as a function of time, Pf is osmotic water permeability in centimeters per second, SAV is the vesicle surface area to volume ratio, MVW is the molar volume of water (18 cm^3 /mol), and Cin and Cout are the initial concentrations of total solute inside and outside the vesicle, respectively (Zeidel et al., 1992, Biochemistry 31:589-596).
# Effect of mercural reagents.
compound,measurement,setting,value
OCCS [β-mercaptoethanol],reversal of inhibition by both mercurial reagents,β-mercaptoethanol 5 mM after pCMBS or HgCl2,completely reversed
[Cl][Hg][Cl] [HgCl2],time to complete inhibition of Pf,"1 mM, 37° C.",≤ 5 min
same,Pf in CHIP28 proteoliposomes after mercurial,"1 mM, 37° C. (FIG. 12: pCMBS 25 minutes, HgCl2 3 minutes)",0.007±0.003 cm/s

# — patent US5858702A, “Isolation, cloning and expression of transmembrane water channel Aquaporin 5 (AQP5)” (The Johns Hopkins University, priority 1995, dated 1999)
